Reference: PubChem BioAssay AID1963441 (Molecular Pharmacology Branch, DTP, NCI, 2024)

System: NCI-H1876 complex spheroid growth, % test/control
Assay: Anticancer human tumor NCI-H1876 cell line growth inhibition [Asc];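 also: compound exposure lasted 7 days starting three days after seeding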;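 as to viability, T/C: 100% = DMSO vehicle control wells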
Settings: for IC50: curve of first compound; for viability, T/C: stronger effect = lower value
In short: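 Tumor cells were grown as multicellular spheroids with stromal HUVEC and mesenchymal stem cells and treated singly or in combination. Concentrations fell in half-log steps from the clinical Cmax, or from 10 microM where none was known.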

For C#Cc1c(F)ccc2cc(O)cc(-c3ncc4c(N5CC6CCC(C5)N6)nc(OCC56CCCN5CC(F)C6)nc4c3F)c12 (configuration not stated) + Cc1c(S(C)(=O)=O)c(-c2cc(F)cc(N3CCN(c4ccc(NS(=O)(=O)c5ccc(NC(CCN6CCC(C(=O)OCCCP(=O)(O)O)CC6)CSc6ccccc6)c(S(=O)(=O)C(F)(F)F)c5)cc4)CC3)c2)c(-c2ccc(Cl)cc2)n1C(C)C, the IC50 (second compound 0.0316 µM) was > 10 µM, the IC50 (second compound 0.1 µM) was > 10 µM and the IC50 (second compound 0.316 µM) was > 10 µM. The IC50 (second compound 1 µM) was > 10 µM, the IC50 (second compound 3.16 µM) was > 10 µM and the IC50 (second compound 10 µM) was > 10 µM. The viability, T/C (second compound 0.0316 µM, first compound 0.0316 µM) was 98.7%, the viability, T/C (second compound 0.0316 µM, first compound 0.1 µM) was 84.9% and the viability, T/C (second compound 0.0316 µM, first compound 0.316 µM) was 108%. For the same molecule, the viability, T/C (second compound 0.0316 µM, first compound 1 µM) was 91.2%, the viability, T/C (second compound 0.0316 µM, first compound 3.16 µM) was 96.8% and the viability, T/C (second compound 0.0316 µM, first compound 10 µM) was 92.9%. For the same molecule, the viability, T/C (second compound 0.1 µM, first compound 0.0316 µM) was 92.2%, the viability, T/C (second compound 0.1 µM, first compound 0.1 µM) was 101% and the viability, T/C (second compound 0.1 µM, first compound 0.316 µM) was 99.3%. It also gave a viability, T/C (second compound 0.1 µM, first compound 1 µM) of 83.1%, a viability, T/C (second compound 0.1 µM, first compound 3.16 µM) of 90.6% and a viability, T/C (second compound 0.1 µM, first compound 10 µM) of 88%. It also gave a viability, T/C (second compound 0.316 µM, first compound 0.0316 µM) of 106%, a viability, T/C (second compound 0.316 µM, first compound 0.1 µM) of 90.5% and a viability, T/C (second compound 0.316 µM, first compound 0.316 µM) of 85.5%. It also gave a viability, T/C (second compound 0.316 µM, first compound 1 µM) of 90.7%, a viability, T/C (second compound 0.316 µM, first compound 3.16 µM) of 86.5% and a viability, T/C (second compound 0.316 µM, first compound 10 µM) of 86.7%. For the same molecule, the viability, T/C (second compound 1 µM, first compound 0.0316 µM) was 90%, the viability, T/C (second compound 1 µM, first compound 0.1 µM) was 97.8% and the viability, T/C (second compound 1 µM, first compound 0.316 µM) was 102%. For the same molecule, the viability, T/C (second compound 1 µM, first compound 1 µM) was 92%, the viability, T/C (second compound 1 µM, first compound 3.16 µM) was 88.2% and the viability, T/C (second compound 1 µM, first compound 10 µM) was 73.5%. The viability, T/C (second compound 3.16 µM, first compound 0.0316 µM) was 101%, the viability, T/C (second compound 3.16 µM, first compound 0.1 µM) was 108% and the viability, T/C (second compound 3.16 µM, first compound 0.316 µM) was 89.5%. The viability, T/C (second compound 3.16 µM, first compound 1 µM) was 87.4%, the viability, T/C (second compound 3.16 µM, first compound 3.16 µM) was 87.3% and the viability, T/C (second compound 3.16 µM, first compound 10 µM) was 74.7%. It also gave a viability, T/C (second compound 10 µM, first compound 0.0316 µM) of 93.2%, a viability, T/C (second compound 10 µM, first compound 0.1 µM) of 99.4% and a viability, T/C (second compound 10 µM, first compound 0.316 µM) of 109%. The viability, T/C (second compound 10 µM, first compound 1 µM) was 93.6%, the viability, T/C (second compound 10 µM, first compound 3.16 µM) was 95.8% and the viability, T/C (second compound 10 µM, first compound 10 µM) was 77%.
